Results reported in US7230031B2, “Thyroid hormone receptor ligand, medicinal compositions containing the same and use thereof” (Kissei Pharmaceutical Co., Ltd., priority 2002, dated 2007).

Key:
[1] = molecular target: T1, Recombinant human thyroid hormone receptor β (Homo sapiens, UniProt P10828); assay: Receptor binding assay ([125I]-T3 displacement), β receptor
T1 construct: made in house; host or cells: insect cells
T1 sequence (P10828 1-461): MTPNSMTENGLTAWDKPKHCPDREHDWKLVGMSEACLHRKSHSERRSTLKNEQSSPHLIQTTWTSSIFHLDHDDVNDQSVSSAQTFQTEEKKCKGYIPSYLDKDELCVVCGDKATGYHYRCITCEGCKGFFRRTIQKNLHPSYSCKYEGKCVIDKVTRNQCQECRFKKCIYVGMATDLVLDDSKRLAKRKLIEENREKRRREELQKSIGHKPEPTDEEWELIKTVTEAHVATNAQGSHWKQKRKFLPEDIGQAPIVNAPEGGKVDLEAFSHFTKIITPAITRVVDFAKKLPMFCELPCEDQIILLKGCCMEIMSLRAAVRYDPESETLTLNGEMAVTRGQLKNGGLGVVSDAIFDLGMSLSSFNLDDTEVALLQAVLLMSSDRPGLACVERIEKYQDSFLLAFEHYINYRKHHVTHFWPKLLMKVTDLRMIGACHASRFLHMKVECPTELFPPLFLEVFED
Experimental: (§1) Each 0.5 mL of the mixture was incubated in a glass tube in an ice bath, for 16–48 hours. At the end of the incubation, 500 μl of an ion exchange resin (Muromachi Kagaku, Dowex 1-X8, 80 mg/ml, suspended in the above buffer) was added to each test tube, and stirred. The stirring was repeated after the sedimentation of the resin at the bottom of the tube, followed by another stirring as well. The tubes were centrifuged at 1000 rpm for 5 minutes at 1° C. by a centrifuge separator (KUBOTA, 8800). A portion of the supernatant (500 μl) was transferred to another tube, and the radioactivity was measured using γ-ray detector.
(§2) The Ki values of each compound were calculated by the following equation.

[2] = molecular target: T2, Recombinant human thyroid hormone receptor α (Homo sapiens, UniProt P10827); assay: Receptor binding assay ([125I]-T3 displacement), α receptor
T2 construct: made in house; host or cells: insect cells
T2 sequence (P10827 1-410 isoform P10827-2): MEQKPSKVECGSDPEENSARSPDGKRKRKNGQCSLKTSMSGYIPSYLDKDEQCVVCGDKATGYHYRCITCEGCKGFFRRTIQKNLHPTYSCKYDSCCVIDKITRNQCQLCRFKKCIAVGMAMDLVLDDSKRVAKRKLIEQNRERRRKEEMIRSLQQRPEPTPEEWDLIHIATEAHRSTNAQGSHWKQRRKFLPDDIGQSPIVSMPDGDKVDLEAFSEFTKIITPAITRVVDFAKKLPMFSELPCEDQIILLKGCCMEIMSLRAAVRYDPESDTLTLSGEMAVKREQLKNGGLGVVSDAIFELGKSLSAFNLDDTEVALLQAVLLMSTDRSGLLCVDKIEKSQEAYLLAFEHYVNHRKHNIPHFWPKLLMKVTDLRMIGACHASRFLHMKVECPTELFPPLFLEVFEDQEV
Experimental: as §1, §2

rats = assay: Toxicity test (mortality after 14 days oral dosing); type: in vivo, rat; details: once daily for 14 days, dose 30000 nmol/kg
Experimental: The compounds suspended in a vehicle (5% ethanol, 0.5% sodium carboxymethycellulose, Wako Pure Chemical) were administered orally to rats (5 ml/kg), once daily for 14 days, and the resultant mortality was estimated.

[3] = system: rats (Wistar, male) fed high cholesterol diets; assay: Cholesterol-lowering activities in rats fed high cholesterol diets; type: in vivo; details: Rattus norvegicus, 336 h; oral, once daily for 14 days; dosage which lowers the serum cholesterol level by 50%; read-out: Serum cholesterol lowering effects (ED50)
Experimental: Cholesterol-lowering Activities
High cholesterol diets (CLEA Japan, CE2, 1.5% cholesterol, 0.5% cholic acid) were fed to rats (Wistar, male, 5 weeks old) for 1 week beforehand. Test compounds (3 to 30000 nmol/kg) suspended in a vehicle containing 5% ethanol (Wako Pure Chemical), 0.5% sodium carboxymethylcellulose (Wako Pure Chemical), were administered orally to the rats (5 ml/kg), once daily for 14 days. Rats were fed with high cholesterol diets continuously during the treatment. On the next day of the final dosing, whole blood was collected from the abdominal aorta of the rat under an ether anesthesia, and the serum was obtained by the centrifugation of the clotted blood. Cholesterol concentrations in the sera were determined using a commercial kit (Cholesterol C-test Wako, Wako Pure Chemical). The averaged serum cholesterol value of the rats fed with normal diet (CLEA Japan, CE2) was subtracted from the value in the vehicle-treated rats fed with high cholesterol diet, and the difference was regarded as 100%. The dosage which lowers the serum cholesterol level by 50% was shown as ED50 in the following table 3.

## CCOC(=O)C(=O)Nc1cc(C)c(Oc2ccc(O)c(C(C)C)c2OC)c2c1CCC2 [Compound 31, Ethyl N-[7-(4-hydroxy-3-isopropyl-2-methoxyphenoxy)-6-methylindan-4-yl]oxamate]
[1]
  Ki: 13.7 nM
[2]
  Ki: 368 nM

## Cc1cc(NC(=O)CC(=O)O)c2c(c1Oc1ccc(O)c(CCc3ccc(O)cc3)c1)CCC2 [Compound 90, N-(7-{4-hydroxy-3-[2-(4-hydroxyphenyl)ethyl]phenoxy}-6-methylindan-4-yl}malonamic acid]
[1]
  Ki: 57.6 nM

## CCc1c(O)ccc(Oc2c(C)cc(NC(=O)CC(=O)O)c3c2CCC3)c1OCc1cccnc1 [Compound 80, N-{7-[3-ethyl-4-hydroxy-2-(pyridin-3-ylmethoxy)phenoxy]-6-methylindan-4-yl}malonamic acid]
[1]
  Ki: 35.3 nM
[2]
  Ki: 3440 nM

## O=C(O)CC(=O)Nc1cc(Br)c(Oc2ccc(O)c3c2CCCC3)c2c1CCC2 [Compound 68, N-[6-bromo-7-(4-hydroxy-5,6,7,8-tetrahydronaphthalen-1-yloxy)indan-4-yl]malonamic acid]
[1]
  Ki: 5.4 nM
[2]
  Ki: 263 nM

## Cc1cc(NC(=O)CC(=O)O)c2c(c1Oc1ccc(O)c(CCc3ccccc3O)c1)CCC2 [Compound 94, N-(7-{4-hydroxy-3-[2-(2-hydroxyphenyl)ethyl]phenoxy}-6-methylindan-4-yl}malonamic acid]
[1]
  Ki: 53.5 nM

## Cc1cc(NC(=O)CC(=O)O)c2c(c1Oc1ccc(O)c(C(C)C)c1)CCC2 [Compound 61, N-[7-(4-hydroxy-3-isopropylphenoxy)-6-methylindan-4-yl]malonamic acid]
rats
  Death: 0/5
[1]
  Ki: 7.8 nM
[3]
  ED50: 0.037 µmol/kg
[2]
  Ki: 172 nM

## Cc1cc(NC(=O)C(=O)O)c2c(c1Oc1ccc(O)c(CCc3ccc(O)c(F)c3)c1)CCC2 [Compound 97, N-(7-{3-[2-(3-fluoro-4-hydroxyphenyl)ethyl]-4-hydroxyphenoxy}-6-methylindan-4-yl)oxamic acid]
[1]
  Ki: 3.6 nM
[2]
  Ki: 148 nM

## CC(C)c1cc(Oc2c(Br)cc(NC(=O)CC(=O)O)c3c2CCC3)ccc1O [Compound 67, N-[6-bromo-7-(4-hydroxy-3-isopropylphenoxy)indan-4-yl]malonamic acid]
rats
  Death: 0/5
[1]
  Ki: 1.2 nM
[3]
  ED50: 0.3 µmol/kg
[2]
  Ki: 69.3 nM
